Experimental data as given in ChEMBL document CHEMBL1159107, “Novel semisynthetic spin-labeled derivatives of podophyllotoxin with cytotoxic and antioxidative activity” (Bioorg Med Chem Lett, 2010).

Key:
HL-60 = experiment: Cytotoxicity against human HL60 cells after 48 hrs; assay type: functional, cell-based; conditions: HL-60, 48 h
RPMI-8226 = experiment: Cytotoxicity against human RPMI8226 cells after 48 hrs; assay type: functional, cell-based; conditions: RPMI-8226, 48 h
Kidney = experiment: Antioxidant activity in Sprague-Dawley rat kidney assessed as inhibition of malonaldehyde; assay type: functional, tissue-based
A549 = experiment: Cytotoxicity against human A549 cells after 48 hrs; assay type: functional, cell-based; conditions: A549, 48 h
Liver = experiment: Antioxidant activity in Sprague-Dawley rat liver assessed as inhibition of malonaldehyde; assay type: functional, tissue-based
Heart = experiment: Antioxidant activity in Sprague-Dawley rat heart assessed as inhibition of malonaldehyde; assay type: functional, tissue-based

SMILES | IC50 (HL-60) [µM] | IC50 (RPMI-8226) [µM] | IC50 (Kidney) [µM] | IC50 (A549) [µM] | IC50 (Liver) [µM] | IC50 (Heart) [µM]
COc1cc([C@@H]2c3cc4c(cc3[C@@H](NC(=O)[C@H](CCSC)NC(=O)OC3CC(C)(C)N([O])C(C)(C)C3)[C@H]3COC(=O)[C@H]23)OCO4)cc(OC)c1O | 0.67 | 0.48 | 7.55 | 0.42 | 6.85 | 5.89
COc1cc([C@@H]2c3cc4c(cc3[C@@H](NC(=O)[C@H](CC(C)C)NC(=O)OC3CC(C)(C)N([O])C(C)(C)C3)[C@H]3COC(=O)[C@H]23)OCO4)cc(OC)c1O | 0.16 | 0.089 | 8.47 | 0.19 | 8.85 | 
COc1cc([C@@H]2c3cc4c(cc3[C@@H](NC(=O)[C@@H](NC(=O)OC3CC(C)(C)N([O])C(C)(C)C3)C(C)O)[C@H]3COC(=O)[C@H]23)OCO4)cc(OC)c1O (some centres not stated) | 0.21 | 0.078 | 7.45 | 0.21 | 7.12 | 8.79
COc1cc([C@@H]2c3cc4c(cc3[C@@H](NC(=O)[C@H](C)NC(=O)OC3CC(C)(C)N([O])C(C)(C)C3)[C@H]3COC(=O)[C@H]23)OCO4)cc(OC)c1O | 0.22 | 0.26 | 7.68 | 0.12 | 7.64 | 6.39
COc1cc([C@@H]2c3cc4c(cc3[C@@H](NC(=O)CNC(=O)OC3CC(C)(C)N([O])C(C)(C)C3)[C@H]3COC(=O)[C@H]23)OCO4)cc(OC)c1O | 0.32 | 0.33 | 8.9 | 0.21 | 7.47 | 7.19
COc1cc([C@@H]2c3cc4c(cc3[C@@H](NC(=O)[C@@H](NC(=O)OC3CC(C)(C)N([O])C(C)(C)C3)C(C)C)[C@H]3COC(=O)[C@H]23)OCO4)cc(OC)c1O | 0.24 | 0.061 | 8.88 | 0.15 | 8.69 | 8.04
COc1cc([C@@H]2c3cc4c(cc3[C@@H](NC(=O)[C@H](Cc3ccccc3)NC(=O)OC3CC(C)(C)N([O])C(C)(C)C3)[C@H]3COC(=O)[C@H]23)OCO4)cc(OC)c1O | 0.21 | 0.09 | 9.63 | 0.21 | 6.55 | 7.39
COc1cc([C@@H]2c3cc4c(cc3[C@@H](O[C@@H]3O[C@@H]5CO[C@@H](C)O[C@H]5[C@H](O)[C@H]3O)[C@H]3COC(=O)[C@H]23)OCO4)cc(OC)c1O [ETOPOSIDE] | 0.42 | 0.14 | 23.8 | 0.29 | 43.9 | 40.7
